As a reminder, the IC50 is the midpoint of a concentration-inhibition curve.

Some results are limits rather than exact numbers.

One test addresses c-Mer (Homo sapiens (Human), UniProt Q12866). The test can be described thus: TAM Enzymatic Assay (HTRF), c-Mer. It is filed as biochemical. To be noted: 0.0625 nM c-Mer, ATP-containing substrate solution, 60 min. In general terms: Time-resolved FRET reads energy transfer from a long-lived donor to a nearby acceptor.
Another test concerns the target PI3Kδ (Homo sapiens (Human), UniProt O00329). To be noted: cited from earlier work.
The target in a further test is Tyro3 (Homo sapiens (Human), UniProt Q06418). In words: TAM Enzymatic Assay (HTRF), Tyro3. Type of test: biochemical. To be noted: 0.366 nM Tyro3, 60 min.
The target of another test is JAK1 (Homo sapiens (Human), UniProt P23458). To be noted: cited from earlier work; for JAK2/JAK1: selectivity ratio, IC50 at 1 mM ATP.
Sequence of JAK1 (P23458 whole entry, species assumed): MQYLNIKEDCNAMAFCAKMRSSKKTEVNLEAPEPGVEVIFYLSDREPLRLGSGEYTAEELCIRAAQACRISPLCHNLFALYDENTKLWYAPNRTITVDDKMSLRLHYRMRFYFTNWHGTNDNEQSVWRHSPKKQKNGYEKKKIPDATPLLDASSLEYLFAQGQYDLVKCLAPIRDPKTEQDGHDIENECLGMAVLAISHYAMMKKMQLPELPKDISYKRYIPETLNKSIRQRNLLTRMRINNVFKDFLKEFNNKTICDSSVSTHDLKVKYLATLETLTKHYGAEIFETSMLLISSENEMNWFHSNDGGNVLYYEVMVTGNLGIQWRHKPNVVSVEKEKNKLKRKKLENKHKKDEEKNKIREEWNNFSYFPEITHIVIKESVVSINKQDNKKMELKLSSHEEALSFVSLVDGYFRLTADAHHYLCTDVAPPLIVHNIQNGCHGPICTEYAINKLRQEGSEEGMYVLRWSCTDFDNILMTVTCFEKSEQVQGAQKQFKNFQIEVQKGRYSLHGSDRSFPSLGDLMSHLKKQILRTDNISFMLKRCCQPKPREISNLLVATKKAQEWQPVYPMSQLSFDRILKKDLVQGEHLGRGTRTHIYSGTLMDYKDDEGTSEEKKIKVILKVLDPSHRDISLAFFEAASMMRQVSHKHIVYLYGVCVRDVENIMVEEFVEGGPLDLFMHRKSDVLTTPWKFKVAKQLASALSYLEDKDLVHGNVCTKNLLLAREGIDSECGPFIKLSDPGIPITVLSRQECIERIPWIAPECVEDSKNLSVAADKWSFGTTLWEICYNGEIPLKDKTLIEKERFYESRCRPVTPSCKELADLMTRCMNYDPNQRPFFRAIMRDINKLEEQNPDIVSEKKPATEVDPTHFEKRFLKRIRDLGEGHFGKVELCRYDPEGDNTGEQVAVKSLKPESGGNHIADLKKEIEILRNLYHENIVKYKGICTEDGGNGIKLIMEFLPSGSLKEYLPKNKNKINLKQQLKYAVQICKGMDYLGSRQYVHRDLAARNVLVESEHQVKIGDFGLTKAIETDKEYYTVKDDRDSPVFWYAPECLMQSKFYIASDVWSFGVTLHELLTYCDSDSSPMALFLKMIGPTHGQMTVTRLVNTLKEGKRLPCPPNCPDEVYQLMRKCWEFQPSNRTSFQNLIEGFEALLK

Sequence of c-Mer (Q12866 21-999): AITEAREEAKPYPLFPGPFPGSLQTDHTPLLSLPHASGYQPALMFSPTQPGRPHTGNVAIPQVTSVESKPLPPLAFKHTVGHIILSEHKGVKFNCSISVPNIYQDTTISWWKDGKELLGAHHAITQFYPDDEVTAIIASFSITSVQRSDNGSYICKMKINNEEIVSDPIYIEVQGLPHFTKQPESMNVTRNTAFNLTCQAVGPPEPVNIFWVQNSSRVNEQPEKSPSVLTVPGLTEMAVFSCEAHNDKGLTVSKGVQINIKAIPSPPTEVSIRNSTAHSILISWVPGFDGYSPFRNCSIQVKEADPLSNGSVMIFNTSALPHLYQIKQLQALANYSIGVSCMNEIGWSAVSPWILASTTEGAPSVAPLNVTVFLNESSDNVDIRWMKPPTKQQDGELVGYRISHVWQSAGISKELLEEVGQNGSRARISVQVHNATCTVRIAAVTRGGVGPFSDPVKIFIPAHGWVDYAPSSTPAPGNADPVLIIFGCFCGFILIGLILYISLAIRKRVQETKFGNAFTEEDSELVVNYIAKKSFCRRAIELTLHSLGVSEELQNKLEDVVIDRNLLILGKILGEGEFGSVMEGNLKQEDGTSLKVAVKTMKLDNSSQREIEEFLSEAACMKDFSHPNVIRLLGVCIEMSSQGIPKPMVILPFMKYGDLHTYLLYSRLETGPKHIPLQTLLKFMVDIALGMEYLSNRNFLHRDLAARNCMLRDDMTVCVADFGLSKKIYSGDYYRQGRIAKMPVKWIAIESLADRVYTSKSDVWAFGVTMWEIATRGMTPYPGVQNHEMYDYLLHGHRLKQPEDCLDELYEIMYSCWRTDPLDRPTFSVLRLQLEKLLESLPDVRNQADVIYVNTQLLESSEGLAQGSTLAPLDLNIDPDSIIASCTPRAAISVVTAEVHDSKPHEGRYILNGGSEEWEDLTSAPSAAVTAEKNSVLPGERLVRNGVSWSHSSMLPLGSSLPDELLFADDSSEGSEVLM
Sequence of Tyro3 (Q06418 41-890): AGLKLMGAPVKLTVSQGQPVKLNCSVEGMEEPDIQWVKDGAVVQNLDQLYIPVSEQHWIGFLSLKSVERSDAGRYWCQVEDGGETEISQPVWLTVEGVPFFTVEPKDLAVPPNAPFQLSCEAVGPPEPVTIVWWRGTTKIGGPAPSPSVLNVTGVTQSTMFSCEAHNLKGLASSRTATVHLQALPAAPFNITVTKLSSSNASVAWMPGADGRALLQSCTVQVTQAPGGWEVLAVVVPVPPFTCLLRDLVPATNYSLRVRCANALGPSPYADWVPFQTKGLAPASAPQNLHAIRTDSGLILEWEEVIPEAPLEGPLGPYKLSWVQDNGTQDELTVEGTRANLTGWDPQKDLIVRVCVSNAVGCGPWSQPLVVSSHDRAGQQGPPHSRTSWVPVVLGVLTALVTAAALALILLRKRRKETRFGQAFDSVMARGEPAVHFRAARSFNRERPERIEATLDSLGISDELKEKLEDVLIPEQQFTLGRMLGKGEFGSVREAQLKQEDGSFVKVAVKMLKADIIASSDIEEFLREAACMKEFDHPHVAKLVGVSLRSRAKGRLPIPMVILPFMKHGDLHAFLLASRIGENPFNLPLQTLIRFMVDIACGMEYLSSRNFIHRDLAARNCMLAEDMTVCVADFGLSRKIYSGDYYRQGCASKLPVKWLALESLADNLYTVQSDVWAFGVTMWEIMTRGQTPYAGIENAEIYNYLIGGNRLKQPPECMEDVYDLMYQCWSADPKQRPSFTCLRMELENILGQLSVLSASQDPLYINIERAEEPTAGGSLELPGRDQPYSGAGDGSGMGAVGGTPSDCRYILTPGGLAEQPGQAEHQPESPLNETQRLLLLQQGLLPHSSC
Sequence of PI3Kδ (O00329 whole entry, species assumed): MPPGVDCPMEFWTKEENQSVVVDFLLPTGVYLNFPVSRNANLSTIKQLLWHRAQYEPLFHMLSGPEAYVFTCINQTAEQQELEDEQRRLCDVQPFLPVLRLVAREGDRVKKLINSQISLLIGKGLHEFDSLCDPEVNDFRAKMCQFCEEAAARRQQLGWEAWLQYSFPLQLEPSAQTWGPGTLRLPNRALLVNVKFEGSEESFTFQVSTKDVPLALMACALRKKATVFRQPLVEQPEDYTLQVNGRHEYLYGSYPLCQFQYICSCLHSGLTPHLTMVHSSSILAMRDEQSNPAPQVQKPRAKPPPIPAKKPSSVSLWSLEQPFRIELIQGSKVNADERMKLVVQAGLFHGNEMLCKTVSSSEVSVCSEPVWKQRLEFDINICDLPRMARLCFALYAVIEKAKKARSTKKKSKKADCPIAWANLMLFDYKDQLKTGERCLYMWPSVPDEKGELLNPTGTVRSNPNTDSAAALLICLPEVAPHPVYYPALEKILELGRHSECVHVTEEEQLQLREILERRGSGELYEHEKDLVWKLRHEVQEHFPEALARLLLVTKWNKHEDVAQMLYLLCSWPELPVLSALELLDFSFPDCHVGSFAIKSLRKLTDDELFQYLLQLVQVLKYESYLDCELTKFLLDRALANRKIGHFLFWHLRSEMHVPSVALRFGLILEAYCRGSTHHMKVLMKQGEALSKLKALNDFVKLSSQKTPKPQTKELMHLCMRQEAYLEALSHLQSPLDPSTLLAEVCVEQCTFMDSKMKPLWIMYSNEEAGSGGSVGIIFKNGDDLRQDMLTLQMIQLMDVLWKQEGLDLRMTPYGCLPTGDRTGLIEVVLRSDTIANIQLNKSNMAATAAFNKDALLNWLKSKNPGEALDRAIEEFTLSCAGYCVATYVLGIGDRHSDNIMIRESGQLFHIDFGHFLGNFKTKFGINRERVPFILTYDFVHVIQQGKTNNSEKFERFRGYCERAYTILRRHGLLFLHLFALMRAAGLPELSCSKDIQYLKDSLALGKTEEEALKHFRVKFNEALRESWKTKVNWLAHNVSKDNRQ
Sequence of PI3Kδ (P27986 whole entry partner, species assumed): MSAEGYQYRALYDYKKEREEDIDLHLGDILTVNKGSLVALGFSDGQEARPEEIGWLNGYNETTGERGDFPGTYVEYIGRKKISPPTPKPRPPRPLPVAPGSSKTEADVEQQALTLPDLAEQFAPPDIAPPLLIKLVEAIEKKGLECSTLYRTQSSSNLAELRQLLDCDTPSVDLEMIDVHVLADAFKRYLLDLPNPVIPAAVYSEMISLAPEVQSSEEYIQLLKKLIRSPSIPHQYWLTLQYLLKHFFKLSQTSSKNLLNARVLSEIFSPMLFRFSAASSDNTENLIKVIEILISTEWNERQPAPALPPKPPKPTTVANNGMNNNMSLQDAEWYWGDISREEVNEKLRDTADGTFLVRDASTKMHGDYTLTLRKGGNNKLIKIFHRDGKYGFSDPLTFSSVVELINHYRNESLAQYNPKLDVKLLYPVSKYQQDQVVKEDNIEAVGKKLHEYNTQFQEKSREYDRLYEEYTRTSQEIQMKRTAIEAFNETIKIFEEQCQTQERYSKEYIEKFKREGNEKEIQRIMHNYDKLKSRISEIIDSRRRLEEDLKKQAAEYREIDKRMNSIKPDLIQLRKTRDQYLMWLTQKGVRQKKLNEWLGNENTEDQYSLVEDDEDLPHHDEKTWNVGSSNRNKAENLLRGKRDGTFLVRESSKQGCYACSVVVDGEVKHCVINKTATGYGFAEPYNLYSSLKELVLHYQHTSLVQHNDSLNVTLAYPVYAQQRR
Method for Tyro3: The kinase assay buffer contained 50 mM HEPES, pH7.5, 10 mM MgCl2, 1 mM EGTA, 0.01% NP-40 and 2 mM DTT. 0.1 ul test compounds dissolved in DMSO were transferred from compound plates to white 384-well assay plates (Greiner [sequence] plates). […] 4 ul enzyme solution (or assay buffer for the enzyme blank) was added to the appropriate wells in each plate, and then 4 ul/well substrate solution was added to initiate the reaction. The plate was protected from light and incubated at room temperature for 60 min. […] The plate was incubated for 1 h at room temperature, and HTRF (homogenous time resolved fluorescence) signal was measured on a PHERAstar FS plate reader (BMG labtech). Percentage of inhibition was calculated for each concentration and IC50 value was generated from curve fitting with GraphPad Prism software.

On c-Mer, `CCCCNc1ncc2c(-c3cccc(CO)c3)nc(C3CCC(O)CC3)n2n1` (single isomer, unassigned) [8 (1st peak), 4-{2-(Butylamino)-5-[3-(hydroxymethyl)phenyl]imidazo[5,1-f][1,2,4]triazin-7-yl}cyclohexanol] yielded an IC50 not above 100 nM.
As to `CCOc1c(C(C)n2nc(C)c3c(N)ncnc32)cc(Cl)c(F)c1C1CNC(=O)C1` (single isomer, unassigned) [Compound 32b, 4-{3-[1-(4-amino-3-methyl-1H-pyrazolo[3,4-d]pyrimidin-1-yl)ethyl]-5-chloro-2-ethoxy-6-fluorophenyl}pyrrolidin-2-one], the 50% inhibitory concentration (IC50) on PI3Kδ is less than 50 nM.
For `CCCCNc1ncc2c(-c3ccc(CN4CCN(C)CC4)cc3)nc([C@H]3CC[C@@H](O)CC3)n2n1` [1 (2nd peak, cis-), cis-4-(2-(Butylamino)-5-{4-[(4-methylpiperazin-1-yl)methyl]phenyl}imidazo[5,1-f][1,2,4]triazin-7-yl)cyclohexanol], the IC50 was not above 100 nM against c-Mer and 100 to 500 nM against Tyro3.
The corresponding values for `CCCCNc1ncc2c(-c3ccc(CN4CCOCC4)cc3)nc([C@H]3CC[C@H](O)CC3)n2n1` [2 (1st peak, trans-), trans-4-{2-(Butylamino)-5-[4-(morpholin-4-ylmethyl)phenyl]imidazo[5,1-f][1,2,4]triazin-7-yl}cyclohexanol] are not above 100 nM and 100 to 500 nM.
`CCCCNc1ncc2c(-c3ccc(CO)cc3)nc([C@H]3CC[C@H](O)CC3)n2n1` [3 (1st peak, trans-), trans-4-{2-(Butylamino)-5-[4-(hydroxymethyl)phenyl]imidazo[5,1-f][1,2,4]triazin-7-yl}cyclohexanol] registered an IC50 on c-Mer not above 100 nM.
For `CCCCNc1ncc2c(-c3ccc(CO)cc3)nc([C@H]3CC[C@@H](O)CC3)n2n1` [3 (2nd peak, cis-), cis-4-{2-(Butylamino)-5-[4-(hydroxymethyl)phenyl]imidazo[5,1-f][1,2,4]triazin-7-yl}cyclohexanol], the IC50 at c-Mer is more than 1000 nM.
For `C[C@@H](O)c1nc2cnc3ccsc3c2n1[C@H]1CC[C@H](CC#N)OC1` [Compound 1, ((2R,5S)-5-{2-[(1R)-1-hydroxyethyl]-1H-imidazo[4,5-d]thieno[3,2-b]pyridin-1-yl}tetrahydro-2H-pyran-2-yl)acetonitrile], the JAK2/JAK1 at JAK1 was more than 10.
For the compound `N#CCC(C1CCN(c2cccc(Cl)n2)C1)n1cc(-c2ncnc3[nH]ccc23)cn1` (stereo not shown) [Compound 3, 3-[1-(6-chloropyridin-2-yl)pyrrolidin-3-yl]-3-[4-(7H-pyrrolo[2,3-d]pyrimidin-4-yl)-1H-pyrazol-1-yl]propanenitrile], the JAK2/JAK1 at JAK1 was more than 10.
For `N#CCC(C1CCN(c2nc3cccnc3o2)C1)n1cc(-c2ncnc3[nH]ccc23)cn1` (stereo not shown) [Compound 4, 3-(1-[1,3]oxazolo[5,4-b]pyridin-2-ylpyrrolidin-3-yl)-3-[4-(7H-pyrrolo[2,3-d]pyrimidin-4-yl)-1H-pyrazol-1-yl]propanenitrile], on JAK1, the JAK2/JAK1 is reported as more than 10.
As for `N#CCC(CN1CCN(C(=O)c2ccc(C#N)cc2F)CC1)n1cc(-c2ncnc3[nH]ccc23)cn1` (stereo not shown) [Compound 5, 4-[(4-{3-cyano-2-[4-(7H-pyrrolo[2,3-d]pyrimidin-4-yl)-1H-pyrazol-1-yl]propyl}piperazin-1-yl)carbonyl]-3-fluorobenzonitrile], the JAK2/JAK1 at JAK1 is more than 10.
Regarding `N#CCC(CN1CCN(C(=O)c2ccc(C#N)cc2F)CC1)n1ccc(-c2ncnc3[nH]ccc23)c1` (stereo not shown) [Compound 6, 4-[(4-{3-cyano-2-[3-(7H-pyrrolo[2,3-d]pyrimidin-4-yl)-1H-pyrrol-1-yl]propyl}piperazin-1-yl)carbonyl]-3-fluorobenzonitrile], the JAK2/JAK1 at JAK1 was more than 10.
As to `N#CCC1(n2cc(-c3ncnc4[nH]ccc34)cn2)CN(C2CCN(C(=O)c3ccnc(C(F)(F)F)c3F)CC2)C1` [Compound 7, {1-{1-[3-Fluoro-2-(trifluoromethyl)isonicotinoyl]piperidin-4-yl}-3-[4-(7H-pyrrolo[2,3-d]pyrimidin-4-yl)-1H-pyrazol-1-yl]azetidin-3-yl}acetonitrile], at JAK1, the JAK2/JAK1 is reported as more than 10.
Regarding `N#CCC1(n2cc(-c3ncnc4[nH]ccc34)cn2)CN(C2CCN(C(=O)Nc3ccc(F)cc3C(F)(F)F)CC2)C1` [Compound 8, 4-{3-(Cyanomethyl)-3-[4-(7H-pyrrolo[2,3-d]pyrimidin-4-yl)-1H-pyrazol-1-yl]azetidin-1-yl}-N-[4-fluoro-2-(trifluoromethyl)phenyl]piperidine-1-carboxamide], the JAK2/JAK1 at JAK1 was more than 10.
For the compound `N#CCC1(n2cc(-c3ncnc4[nH]ccc34)cn2)CN(C2CCN(C(=O)c3ccnc(C(F)(F)F)n3)CC2)C1` [Compound 9, [3-[4-(7H-pyrrolo[2,3-d]pyrimidin-4-yl)-1H-pyrazol-1-yl]-1-(1-{[2-(trifluoromethyl)pyrimidin-4-yl]carbonyl}piperidin-4-yl)azetidin-3-yl]acetonitrile], the JAK2/JAK1 at JAK1 is on record as more than 10.
On to `N#CC[C@]1(n2cc(-c3ncnc4[nH]ccc34)cn2)C[C@H](N2CCN(C(=O)c3ccnc(C(F)(F)F)n3)CC2)C1` [Compound 10, [trans-1-[4-(7H-pyrrolo[2,3-d]pyrimidin-4-yl)-1H-pyrazol-1-yl]-3-(4-{[2-(trifluoromethyl)pyrimidin-4-yl]carbonyl}piperazin-1-yl)cyclobutyl] acetonitrile], for which, on JAK1, the JAK2/JAK1 was more than 10.
As to `C[C@H](NC(=O)c1cc(F)c(N2CC(CC#N)(n3cc(-c4ncnc5[nH]ccc45)cn3)C2)cc1F)C(F)(F)F` [Compound 16, 4-{3-(cyanomethyl)-3-[4-(7H-pyrrolo [2,3-d]pyrimidin-4-yl)-1H-pyrazol-1-yl]azetidin-1-yl}-2,5-difluoro-N-[(1S)-2,2,2-trifluoro-1-methylethyl] benzamide], the JAK2/JAK1 on JAK1 was more than 10.
Turning to `N#CCC1(n2cc(-c3ncnc4[nH]ccc34)cn2)CN([C@H]2CC[C@@H](Oc3cc(CCO)nc(C(F)(F)F)n3)CC2)C1` [Compound 18, {1-(cis-4-{[6-(2-hydroxyethyl)-2-(trifluoromethyl)pyrimidin-4-yl]oxy}cyclohexyl)-3-[4-(7H-pyrrolo [2,3-d]pyrimidin-4-yl)-1H-pyrazol-1-yl]azetidin-3-yl}acetonitrile], at JAK1, the JAK2/JAK1 is more than 10.
For `CCNCc1cc(O[C@H]2CC[C@@H](N3CC(CC#N)(n4cc(-c5ncnc6[nH]ccc56)cn4)C3)CC2)nc(C(F)(F)F)c1` [Compound 19, {1-(cis-4-{[4-[(ethylamino)methyl]-6-(trifluoromethyl)pyridin-2-yl]oxy}cyclohexyl)-3-[4-(7H-pyrrolo [2,3-d]pyrimidin-4-yl)-1H-pyrazol-1-yl]azetidin-3-yl}acetonitrile], the JAK2/JAK1 at JAK1 was more than 10.
For `CC(C)(O)c1cc(O[C@H]2CC[C@@H](N3CC(CC#N)(n4cc(-c5ncnc6[nH]ccc56)cn4)C3)CC2)nc(C(F)(F)F)c1` [Compound 20, {1-(cis-4-{[4-(1-hydroxy-1-methylethyl)-6-(trifluoromethyl)pyridin-2-yl]oxy}cyclohexyl)-3-[4-(7H-pyrrolo [2,3-d]pyrimidin-4-yl)-1H-pyrazol-1-yl]azetidin-3-yl}acetonitrile], on JAK1, the JAK2/JAK1 is listed as more than 10.
On to `C[C@@H](CO)NCc1cc(OC2CCN([C@H]3C[C@](CC#N)(n4cc(-c5ncnc6[nH]ccc56)cn4)C3)CC2)nc(C(F)(F)F)c1` [Compound 23, {trans-3-(4-{[4-({[(1S)-2-hydroxy-1-methylethyl]amino}methyl)-6-(trifluoromethyl)pyridin-2-yl]oxy}piperidin-1-yl)-1-[4-(7H-pyrrolo[2,3-d]pyrimidin-4-yl)-1H-pyrazol-1-yl]cyclobutyl} acetonitrile], for which the JAK2/JAK1 at JAK1 was more than 10.
On to `C[C@@H](O)CNCc1cc(OC2CCN([C@H]3C[C@](CC#N)(n4cc(-c5ncnc6[nH]ccc56)cn4)C3)CC2)nc(C(F)(F)F)c1` [Compound 24, {trans-3-(4-{[4-({[(2R)-2-hydroxypropyl]amino}methyl)-6-(trifluoromethyl)pyridin-2-yl]oxy}piperidin-1-yl)-1-[4-(7H-pyrrolo[2,3-d]pyrimidin-4-yl)-1H-pyrazol-1-yl]cyclobutyl} acetonitrile], for which the JAK2/JAK1 on JAK1 is reported as more than 10.
Turning to `C[C@H](O)CNCc1cc(OC2CCN([C@H]3C[C@](CC#N)(n4cc(-c5ncnc6[nH]ccc56)cn4)C3)CC2)nc(C(F)(F)F)c1` [Compound 25, {trans-3-(4-{[4-({[(2S)-2-hydroxypropyl]amino}methyl)-6-(trifluoromethyl)pyridin-2-yl]oxy}piperidin-1-yl)-1-[4-(7H-pyrrolo[2,3-d]pyrimidin-4-yl)-1H-pyrazol-1-yl]cyclobutyl} acetonitrile], on JAK1, the JAK2/JAK1 is reported as more than 10.
For `N#CC[C@]1(n2cc(-c3ncnc4[nH]ccc34)cn2)C[C@H](N2CCC(Oc3cc(CCO)cc(C(F)(F)F)n3)CC2)C1` [Compound 26, {trans-3-(4-{[4-(2-hydroxyethyl)-6-(trifluoromethyl)pyridin-2-yl]oxy}piperidin-1-yl)-1-[4-(7H-pyrrolo[2,3-d]pyrimidin-4-yl)-1H-pyrazol-1-yl]cyclobutyl} acetonitrile], at JAK1, the JAK2/JAK1 is listed as more than 10.
On to `CCCCNc1ncc2c(-c3ccc(F)cc3)nc(C[C@H]3CC[C@H](N)CC3)n2n1` [Example 13, trans-7-[(4-Aminocyclohexyl)methyl]-N-butyl-5-(4-fluorophenyl)imidazo[5,1-f][1,2,4]triazin-2-amine], for which the JAK2/JAK1 at JAK1 was more than 10.
For `N[C@H]1CC[C@H](Cc2nc(-c3ccc(F)cc3)c3cnc(NCCCc4ccccc4)nn23)CC1` [Example 14, trans-7-((4-Aminocyclohexyl)methyl)-5-(4-fluorophenyl)-N-(3-phenylpropyl)imidazo [5,1-f][1,2,4]triazin-2-amine], at JAK1, the JAK2/JAK1 is more than 10.
Regarding “trans-7-((4-Aminocyclohexyl)methyl)-5-(4-fluorophenyl)-N-(3-phenylpropyl)imidazo [5,1-f][1,2,4]triazin-2-amine [Example 14]”, the IC50 at JAK1 (1 mM ATP) is less than 10 nM.

Values taken from patent US9708333B2, “Fused bicyclic 1,2,4-triazine compounds as TAM inhibitors” (Incyte Corporation, priority 2015, dated 2017).
